Measured values taken from paper PMC3973950, “Synthesis of 5-arylidine amino-1,3,4-thiadiazol-2-[(N-substituted benzyol)]sulphonamides endowed with potent antioxidants and anticancer activity induces growth inhibition in HEK293, BT474 and NCI-H226 cells” (Medicinal Chemistry Research, 2013).

Assays:
[1] = Nitric oxide radical scavenging (sodium nitroprusside, Griess reaction); format: biochemical; conditions: Conc. ± SD; standard curcumin; read-out: IC50 inhibitory concentration, Nitric oxide radical
Protocol: Nitric oxide generated from sodium nitroprusside in aqueous solution at physiological pH interacts with oxygen to produce nitrite ions, which were measured by the Griess reaction (Marcocci et al., [1994]; Green et al., [1982]). Scavenger of nitric oxide competes with oxygen leading to reduced production of nitric oxide (Mondal et al., [2006]). The reaction mixture (3 mL) containing sodium nitroprusside (10 mM) in phosphate-buffered saline (PBS) and the compounds in different concentrations (10, 20, 30, 40, 50 and 100 μg) were incubated at 25 °C for 150 min. At every 30-min interval, the incubated sample (0.5 mL) was removed and Griess reagent (1 % sulphanilamide, 0.1 % naphthylethylene diamine dihydrochloride in 2 % H3PO4) (0.5 mL) was added. The absorbance of the chromophore formed was measured at 546 nm. All the analyses were performed in triplicate, and the results were averaged. The percentage inhibition of nitric oxide generated was measured by comparing the absorbance values of control and test.

[2] = test system: HEK 293, M468 and NCI-H226; experiment: In vitro cytotoxicity by MTT assay, summary over all cell lines; format: cell-based; conditions: on all cell lines
Protocol: The cancer cell line cultures of HEK 293 ([…]), BT474 (breast cancer cell line) and NCI-H226 (lung cancer) were obtained from Pasteur Institute of India, Coonoor, India, and were cultured in RPMI-1640 and 10 % heat-[…] New born calf serum with antibiotics [penicillin ([…]), streptomycin (100 μg/mL) and amphotericin B (25 μg/mL)]. The cells were maintained at 37 °C in a humidified atmosphere with 5 % CO2 and were subcultured twice a week.
The monolayer cell culture (100 μL) was trypsinized, and the cell count was adjusted to […] using medium containing 10 % new born calf serum. To each well of the 96-well microtitre plate, the diluted cell suspension (approximately 10,000 cells) (0.1 mL) was added and kept for 24 h in incubator at 37 °C in 5 % CO2 atmosphere for cell monolayer formation. After 24 h, when a partial monolayer was formed at the bottom of the well, the supernatant was flicked off, the monolayer was washed once, and different drugs, i.e. synthesized compounds (100 μL), were added to the cells in microtitre plates. The plates were then incubated at 37 °C for 3 days in 5 % CO2 atmosphere, and microscopic examination was carried out and observations recorded every 24 h. After 72 h, the sample solution in the wells was flicked off; MTT dye ([…]) was added to each well; plates were gently shaken and incubated for 4 h at 37 °C in 5 % CO2 incubator. The supernatant was removed and propanol (50 μL) was added; the plates were gently shaken to solubilize the formed formazan. The absorbance was measured using a microplate reader at a wavelength of 490 nm (Edmondson et al., [1988]; Prasad et al., [2005]; Chiruvella et al., [2008]; Chang et al., [2007]).

SMILES	IC50 [1] [µM]	cytotoxic activity compared with all synthesized compounds [2]
O=C(NS(=O)(=O)c1nnc(N=Cc2ccc(O)cc2)s1)c1ccccc1 [Compound 9e, N-({5-[(4-Hydroxybenzylidene)amino]-1,3,4-thiadiazol-2-yl}sulfonyl)benzamide]	155 ± 17.6	
COc1ccccc1C=Nc1nnc(S(=O)(=O)NC(=O)c2ccccc2)s1 [Compound 9c, N-({5-[(2-Methoxybenzylidene)amino]-1,3,4-thiadiazol-2-yl}sulfonyl)benzamide]	81.9 ± 10.4	more potent
O=C(NS(=O)(=O)c1nnc(N=Cc2ccccc2O)s1)c1ccccc1 [Compound 9f, N-({5-[(2-Hydroxybenzylidene)amino]-1,3,4-thiadiazol-2-yl}sulfonyl)benzamide]	38 ± 11.8	
O=C(NS(=O)(=O)c1nnc(N=Cc2ccc(Cl)cc2)s1)c1ccccc1 [Compound 9b, N-({5-[(4-Chlorobenzylidene)amino]-1,3,4-thiadiazol-2-yl}sulfonyl)benzamide]	52.6 ± 16.7	more potent
COc1ccc(C=Nc2nnc(S(=O)(=O)NC(=O)c3ccccc3)s2)cc1 [Compound 9d, N-({5-[(4-Methoxybenzylidene)amino]-1,3,4-thiadiazol-2-yl}sulfonyl)benzamide]	53 ± 6.74	
O=C(NS(=O)(=O)c1nnc(N=Cc2ccccc2)s1)c1ccccc1 [Compound 9a, N-{[5-(Benzylidenamino)-1,3,4-thiadiazol-2-yl]sulphonyl} benzamide]	104 ± 7.5	
COc1cc(C=Nc2nnc(S(=O)(=O)NC(=O)c3ccccc3)s2)ccc1O [Compound 9g, N-({5-[(4-Hydroxy-3-methoxybenzylidene)amino]-1,3,4-thiadiazol-2-yl}sulfonyl)benzamide]		less activity
